Data: paper PMC8564633, “SMAC/Diablo controls proliferation of cancer cells by regulating phosphatidylethanolamine synthesis” (Molecular Oncology, 2021)
Non-standard residues stand in square brackets, D forms with d. Residues, ends and D or L forms follow the SMILES beside them. Dmt = Cc1cc(O)cc(C)c1C[C@H](N)C(=O)O; Orn = NCCC[C@H](N)C(=O)O

What follows are compounds tested on A549 cells. Settings: 24 h.
Assay type: cell-based, human
Method: Cells were seeded in 96‐well cell culture plates (8000/well) and allowed to grow for 48 h. After washing with PBS, cells were fixed with 50% trichloroacetic acid and stained with SRB for 20 min. Excess SRB was removed, and cells were washed with 1% acetic acid. SRB extraction was done using 100 mM Tris‐base, and absorbance at 510 nm was determined using an Infinite M1000 plate reader (Tecan, Männedorf, Switzerland).
Fig. 7 PSD‐interacting peptides bind to PSD, inhibiting its activity, and when cell‐penetrating and mitochondria‐ or nucleus‐targeted, inhibit cell proliferation. […] (B) Inhibition of PSD activity by the 2F3 (●) or 1C11 (○) peptide. PSD activity was measured using the DSB‐3 method. (C‐E) Cell proliferation inhibition following incubation of A549 cells with the indicated mitochondria‐ or nucleus‐targeted peptides for 24 h in a serum‐free medium, and cell proliferation was assayed using the SRB method. Results are the means ± SEM (n = 3). (F) A549 cells were incubated for 90 min with 5 µM of the mitochondria‐ or nucleus‐targeted FITC‐labelled peptides, immunostained with anti‐SMAC antibodies and with DAPI and visualized by confocal microscope for subcellular localization. (a) and (b) present higher magnification, white arrows point to possible nuclear localization of the peptide, and blue arrows to its colocalization with mitochondria marker (n = 3). Scale bars represent 20, 10 µm as indicated.
Table S4. Effects of peptide identified as interacting with PSD or their interaction with SMAC/Diablo is prevented in the presence of PSD on A549 lung cancer cell growth A549 cells were seeded in 96-well plate (7000 cells/well). After 24 h cells were incubated without or with the indicated peptide concentration for 24 h in a serum-free medium. Then, cells were washed with PBS, and analyzed for cell growth using the SRB method. Results are the mean ± SD (n=3). Peptide sequence, its identification manner, based on interacting with PSD or their interaction with SMAC/Diablo is prevented in the presence of PSD are shown. In addition, the peptides are presented with the cell penetrating peptide targeting to the mitochondria or the nucleus. The results are presented as the concentration required for 50% inhibition (IC50).
No Peptide spot and Protein/Function Peptide and Cellular IC50 […]
ALSTSSPIPSVPQSQ transcriptional coactivator 2 Mitochondria (A) […]
AQPQTGSGAS truncated poly Q, transcriptional H-(D-Arg)–Dmt–Orn–Phe- 2F3 >100 Interacting with PSD coactivator for NOTCH proteins, Mitochondria promotes proliferative signaling R-{D-Arg}-RK- 2F3 28.9±5.2 during neurogenesis (Nucleus). Nucleus […]
PNQSSRAFQGTDHS transcriptional coactivator 2 Mitochondria
SDLAFDFLSQQ truncated poly Q, A transcriptional D-Arg–Dmt–Orn–Phe-2I8 66.8±4.7 Identified by PSD coactivator for NOTCH proteins, Mitochondria preventing SMAC promotes proliferative signaling R-{D-Arg}-RK-2I8 >100 interaction with it during neurogenesis (Nucleus). Nucleus […]
ALLTSGTSDPRARV protease promotes cell death either Mitochondria […]
TYGTPSLWARL by direct binding to IAPs proteins D-Arg–Dmt–Orn–Phe -1C11 89.3±5.49 Interacting with PSD leading to increased caspase Mitochondria activity or caspase-independent and serine protease activity-dependent R-{D-Arg}-RK- 1C11 66.5±3.9 mechanism. (Mitochondrion Nucleus intermembrane space). 1C11- R-{D-Arg}-RK 30.0±3.8 […]
ELYRMSTYSTFPAG Acts as an E3 ubiquitin-protein Mitochondria
VPVSERSLARA ligase, regulator of NF-kappa-B 1E14- D-Arg–Dmt–Orn–Phe >100 Identified by PSD signaling, apoptosis, cell Mitochondria preventing SMAC proliferation, cell invasion and R-{D-Arg}-RK-1E14 >100 interaction with it metastasis, modulates inflammatory Nucleus signaling, (Cytosol, nucleus and […]
Work on Cc1cc(O)cc(C)c1C[C@H](NC(=O)[C@@H](CCCNC(=N)N)NC(=O)[C@H](CCC(N)=O)NC(=O)[C@H](CCC(N)=O)NC(=O)[C@H](CO)NC(=O)[C@H](CC(C)C)NC(=O)[C@H](Cc1ccccc1)NC(=O)[C@H](CC(=O)O)NC(=O)[C@H](Cc1ccccc1)NC(=O)[C@H](C)NC(=O)[C@H](CC(C)C)NC(=O)[C@H](CC(=O)O)NC(=O)[C@H](CO)NC(=O)[C@H](CO)NC(=O)[C@H](Cc1c[nH]cn1)NC(=O)[C@H](CC(=O)O)NC(=O)[C@@H](NC(=O)CNC(=O)[C@H](CCC(N)=O)NC(=O)[C@H](Cc1ccccc1)NC(=O)[C@H](C)NC(=O)[C@H](CCCNC(=N)N)NC(=O)[C@H](CO)NC(=O)[C@H](CO)NC(=O)[C@H](CCC(N)=O)NC(=O)[C@H](CC(N)=O)NC(=O)[C@@H]1CCCN1)[C@@H](C)O)C(=O)N[C@@H](CCCN)C(=O)N[C@@H](Cc1ccccc1)C(N)=O [2I8- (D-Arg)-Dmt-Orn-Phe-NH2] (H-PNQSSRAFQGTDHSSDLAFDFLSQQ[dR][Dmt][Orn]F-NH2; N-terminus assumed) yielded an IC50 of 30.2 ± 3.6 µM.
CC(C)C[C@H](NC(=O)[C@H](CC(=O)O)NC(=O)[C@H](CO)NC(=O)[C@H](CO)NC(=O)[C@H](Cc1c[nH]cn1)NC(=O)[C@H](CC(=O)O)NC(=O)[C@@H](NC(=O)CNC(=O)[C@H](CCC(N)=O)NC(=O)[C@H](Cc1ccccc1)NC(=O)[C@H](C)NC(=O)[C@H](CCCNC(=N)N)NC(=O)[C@H](CO)NC(=O)[C@H](CO)NC(=O)[C@H](CCC(N)=O)NC(=O)[C@H](CC(N)=O)NC(=O)[C@@H]1CCCN1)[C@@H](C)O)C(=O)N[C@@H](C)C(=O)N[C@@H](Cc1ccccc1)C(=O)N[C@@H](CC(=O)O)C(=O)N[C@@H](Cc1ccccc1)C(=O)N[C@@H](CC(C)C)C(=O)N[C@@H](CO)C(=O)N[C@@H](CCC(N)=O)C(=O)N[C@@H](CCC(N)=O)C(=O)N[C@@H](CCCNC(=N)N)C(=O)N[C@H](CCCNC(=N)N)C(=O)N[C@@H](CCCNC(=N)N)C(=O)N[C@@H](CCCCN)C(=O)O [2I8-R-{D-Arg}-RK] (H-PNQSSRAFQGTDHSSDLAFDFLSQQR[dR]RK-OH; N-terminus and C-terminus assumed) was tested, and the IC50 was 19.7 µM.
Work on Cc1cc(O)cc(C)c1C[C@H](NC(=O)[C@H](N)CCCNC(=N)N)C(=O)N[C@@H](CCCN)C(=O)N[C@@H](Cc1ccccc1)C(=O)N[C@@H](C)C(=O)N[C@@H](CC(C)C)C(=O)N[C@@H](CC(C)C)C(=O)N[C@H](C(=O)N[C@@H](CO)C(=O)NCC(=O)N[C@H](C(=O)N[C@@H](CO)C(=O)N[C@@H](CC(=O)O)C(=O)N1CCC[C@H]1C(=O)N[C@@H](CCCNC(=N)N)C(=O)N[C@@H](C)C(=O)N[C@@H](CCCNC(=N)N)C(=O)N[C@H](C(=O)N[C@H](C(=O)N[C@@H](Cc1ccc(O)cc1)C(=O)NCC(=O)N[C@H](C(=O)N1CCC[C@H]1C(=O)N[C@@H](CO)C(=O)N[C@@H](CC(C)C)C(=O)N[C@@H](Cc1c[nH]c2ccccc12)C(=O)N[C@@H](C)C(=O)N[C@@H](CCCNC(=N)N)C(=O)N[C@@H](CC(C)C)C(=O)O)[C@@H](C)O)[C@@H](C)O)C(C)C)[C@@H](C)O)[C@@H](C)O [D-Arg–Dmt–Orn–Phe -1C11] (H-[dR][Dmt][Orn]FALLTSGTSDPRARVTYGTPSLWARL-OH; N-terminus and C-terminus assumed) yielded an IC50 of 89.3 ± 5.49 µM.
For CSCC[C@H](NC(=O)[C@H](CCCNC(=N)N)NC(=O)[C@H](Cc1ccc(O)cc1)NC(=O)[C@H](CC(C)C)NC(=O)[C@H](CCC(=O)O)NC(=O)[C@H](Cc1ccccc1)NC(=O)[C@H](CCCN)NC(=O)[C@H](Cc1c(C)cc(O)cc1C)NC(=O)[C@H](N)CCCNC(=N)N)C(=O)N[C@@H](CO)C(=O)N[C@H](C(=O)N[C@@H](Cc1ccc(O)cc1)C(=O)N[C@@H](CO)C(=O)N[C@H](C(=O)N[C@@H](Cc1ccccc1)C(=O)N1CCC[C@H]1C(=O)N[C@@H](C)C(=O)NCC(=O)N[C@H](C(=O)N1CCC[C@H]1C(=O)N[C@H](C(=O)N[C@@H](CO)C(=O)N[C@@H](CCC(=O)O)C(=O)N[C@@H](CCCNC(=N)N)C(=O)N[C@@H](CO)C(=O)N[C@@H](CC(C)C)C(=O)N[C@@H](C)C(=O)N[C@@H](CCCNC(=N)N)C(=O)N[C@@H](C)C(=O)O)C(C)C)C(C)C)[C@@H](C)O)[C@@H](C)O [D-Arg–Dmt–Orn–Phe-1E14] (H-[dR][Dmt][Orn]FELYRMSTYSTFPAGVPVSERSLARA-OH; N-terminus and C-terminus assumed), the IC50 was greater than 100 µM.
With CC[C@H](C)[C@H](NC(=O)[C@@H]1CCCN1C(=O)[C@H](CO)NC(=O)[C@H](CO)NC(=O)[C@@H](NC(=O)[C@H](CO)NC(=O)[C@H](CC(C)C)NC(=O)[C@H](C)NC(=O)[C@H](Cc1ccccc1)NC(=O)[C@H](CCCN)NC(=O)[C@H](Cc1c(C)cc(O)cc1C)NC(=O)[C@H](N)CCCNC(=N)N)[C@@H](C)O)C(=O)N1CCC[C@H]1C(=O)N[C@@H](CO)C(=O)N[C@H](C(=O)N1CCC[C@H]1C(=O)N[C@@H](CCC(N)=O)C(=O)N[C@@H](CO)C(=O)N[C@@H](CCC(N)=O)C(=O)N[C@@H](C)C(=O)N[C@@H](CCC(N)=O)C(=O)N1CCC[C@H]1C(=O)N[C@@H](CCC(N)=O)C(=O)N[C@H](C(=O)NCC(=O)N[C@@H](CO)C(=O)NCC(=O)N[C@@H](C)C(=O)N[C@@H](CO)C(=O)O)[C@@H](C)O)C(C)C [H-(D-Arg)–Dmt–Orn–Phe- 2F3] (H-[dR][Dmt][Orn]FALSTSSPIPSVPQSQAQPQTGSGAS-OH; C-terminus assumed) the IC50 was greater than 100 µM.
With CSCC[C@H](NC(=O)[C@H](CCCNC(=N)N)NC(=O)[C@H](Cc1ccc(O)cc1)NC(=O)[C@H](CC(C)C)NC(=O)[C@H](CCC(=O)O)NC(=O)[C@H](CCCCN)NC(=O)[C@H](CCCNC(=N)N)NC(=O)[C@@H](CCCNC(=N)N)NC(=O)[C@@H](N)CCCNC(=N)N)C(=O)N[C@@H](CO)C(=O)N[C@H](C(=O)N[C@@H](Cc1ccc(O)cc1)C(=O)N[C@@H](CO)C(=O)N[C@H](C(=O)N[C@@H](Cc1ccccc1)C(=O)N1CCC[C@H]1C(=O)N[C@@H](C)C(=O)NCC(=O)N[C@H](C(=O)N1CCC[C@H]1C(=O)N[C@H](C(=O)N[C@@H](CO)C(=O)N[C@@H](CCC(=O)O)C(=O)N[C@@H](CCCNC(=N)N)C(=O)N[C@@H](CO)C(=O)N[C@@H](CC(C)C)C(=O)N[C@@H](C)C(=O)N[C@@H](CCCNC(=N)N)C(=O)N[C@@H](C)C(=O)O)C(C)C)C(C)C)[C@@H](C)O)[C@@H](C)O [R-{D-Arg}-RK-1E14] (H-R[dR]RKELYRMSTYSTFPAGVPVSERSLARA-OH; N-terminus and C-terminus assumed) the IC50 was greater than 100 µM.
CC(C)C[C@H](NC(=O)[C@H](CC(=O)O)NC(=O)[C@H](CO)NC(=O)[C@H](CO)NC(=O)[C@H](Cc1c[nH]cn1)NC(=O)[C@H](CC(=O)O)NC(=O)[C@@H](NC(=O)CNC(=O)[C@H](CCC(N)=O)NC(=O)[C@H](Cc1ccccc1)NC(=O)[C@H](C)NC(=O)[C@H](CCCNC(=N)N)NC(=O)[C@H](CO)NC(=O)[C@H](CO)NC(=O)[C@H](CCC(N)=O)NC(=O)[C@H](CC(N)=O)NC(=O)[C@@H]1CCCN1C(=O)[C@H](CCCCN)NC(=O)[C@H](CCCNC(=N)N)NC(=O)[C@@H](CCCNC(=N)N)NC(=O)[C@@H](N)CCCNC(=N)N)[C@@H](C)O)C(=O)N[C@@H](C)C(=O)N[C@@H](Cc1ccccc1)C(=O)N[C@@H](CC(=O)O)C(=O)N[C@@H](Cc1ccccc1)C(=O)N[C@@H](CC(C)C)C(=O)N[C@@H](CO)C(=O)N[C@@H](CCC(N)=O)C(=O)N[C@@H](CCC(N)=O)C(=O)O [R-{D-Arg}-RK-2I8] (H-R[dR]RKPNQSSRAFQGTDHSSDLAFDFLSQQ-OH; N-terminus and C-terminus assumed) showed an IC50 greater than 100 µM.
